# Source: PubChem BioAssay AID2060487 (Molecular Pharmacology Branch, DTP, NCI, 2025)
# System: 997537-175-T-J1-PDC complex spheroid viability
# Test: Anticancer human tumor 997537-175-T-J1-PDC patient-derived colon adenocarcinoma cell line growth inhibition [GQUAD]
# Settings: for IC50: curve of first compound; for viability, T/C: stronger effect = lower value
# Description: DNA G-quadruplex Stabilizer Agents in Combinations in Complex Spheroids
# A high-throughput screen of multi-cell type tumor spheroids was designed to identify active combinations of DNA G-quadruplex stabilizer agents and targeted small molecules. Complex spheroids include a stromal component modeled by human endothelial cells (HUVEC) and fibroblasts modeled by human mesenchymal stem cells (MSCs). The concentration ranges selected for each drug and investigational agent were based upon clinically achievable concentrations if the clinical Cmax of the agent was known.
# Compounds. The drugs and investigational agents: pidnarulex (CX-5461; NSC782164), APTO-253 (NSC789042), BRACO-19 (NSC847499), peposertib (NSC802822), ceralasertib (NSC780249), elimusertib (NSC800525), camonsertib (NSC841442), AZD-1390 (NSC803789), olaparib (NSC753686), talazoparib (NSC767125), ART-558 (NSC835418), sotorasib (NSC818433), MRTX-1133 (NSC836407), SN-38 (NSC673596), topotecan (NSC609699), etoposide (NSC141540), doxorubicin (NSC123127), gemcitabine (NSC613327), 5-fluorouracil (NSC19893), paclitaxel (NSC125973), vemurafenib (NSC761431), panobinostat (NSC761190), R-306465 (JNJ-16241199; NSC773264), adavosertib (NSC754352), TP-3654 (NSC805149), carboplatin (NSC241240), KSQ-4279 (NSC840948), and staurosporine (NSC755774) were obtained from the National Cancer Institute (NCI) Developmental Therapeutics Program Chemical Repository (34). The FDA-approved anticancer drug set is available from the NCI Developmental Therapeutics Program. […] The stock solutions were prepared in dimethyl sulfoxide (DMSO, Sigma-Aldrich, St. Louis, MO, cat. D2650) at 800-fold the tested concentration and stored at -70 degrees C prior to their use. All drugs and investigational agents were tested over a range starting from a high concentration at or near the clinical Cmax and decreasing in half-log increments. If the clinical Cmax for an agent had not been determined, the highest concentration tested was 10 microM.
# 2.3 Cell Culture. All cells were maintained in an incubator at 37 degrees C and 5% CO2 with 95% humidity. The PDC lines were cultured according to standard operating procedures established by the NCI PDMR. All PDCs were thawed and cultured in Matrigel-coated flasks prepared with a working solution of 1X Ham's F-12 nutrient mix, without supplementation (Invitrogen, cat. 11765054), 100 U/mL penicillin-streptomycin (Invitrogen, cat. 15140122), and 2.5% Matrigel (Corning Inc., cat. 354248) for the first three passages. The 857933-349-R-J2-PDC line was cultured in 6C/Colon 1B media, which includes advanced DMEM/F-12 (Thermo Fisher Scientific, cat. 12634028), 10 mM HEPES (Thermo Fisher Scientific, cat. 15630080), 1X GlutaMAX supplement (Thermo Fisher Scientific, cat. 35050061), 0.1 mg/mL primocin (InvivoGen, cat. ant-pm-2), 10% defined fetal bovine serum, heat inactivated (HyClone Laboratories Inc., cat. SH30070.03HI), 50% L-WRN conditioned media (ATCC, cat. CRL-3276), 1.25 mM N-Acetyl-L-cysteine (Sigma-Aldrich, cat. A9165), 10 mM nicotinamide (Sigma-Aldrich, cat. N0636), 1X B-27 supplement (Thermo Fisher Scientific, cat. 17504044), 1X N-2 supplement (Thermo Fisher Scientific, cat. 17502048), 10 microM Y-27632 dihydrochloride (Tocris Bioscience, cat. 1254), and 50 ng/mL human EGF recombinant protein (Thermo Fisher Scientific, cat. PHG0311). The 485176-168-R4-J1-PDC line was cultured in Panc media, which includes all 6C/Colon 1B media components plus 100 ng/mL human FGF-10 (Thermo Fisher Scientific, cat. 100-26), 500 nM SB-431542 (Selleckchem, cat. S1067), and gastrin (Tocris, cat. 3006).
# […]
# [1] = second compound 0.0316 µM, first compound 0.0316 µM
# [2] = second compound 0.0316 µM, first compound 0.1 µM
# [3] = second compound 0.0316 µM, first compound 0.316 µM
# [4] = second compound 0.0316 µM, first compound 1 µM
# [5] = second compound 0.0316 µM, first compound 3.16 µM
# [6] = second compound 0.0316 µM, first compound 10 µM
# [7] = second compound 0.1 µM, first compound 0.0316 µM
# [8] = second compound 0.1 µM, first compound 0.1 µM
# [9] = second compound 0.1 µM, first compound 0.316 µM
# [10] = second compound 0.1 µM, first compound 1 µM
# [11] = second compound 0.1 µM, first compound 3.16 µM
# [12] = second compound 0.1 µM, first compound 10 µM
# [13] = second compound 0.316 µM, first compound 0.0316 µM
# [14] = second compound 0.316 µM, first compound 0.1 µM
# [15] = second compound 0.316 µM, first compound 0.316 µM
# [16] = second compound 0.316 µM, first compound 1 µM
# [17] = second compound 0.316 µM, first compound 3.16 µM
# [18] = second compound 0.316 µM, first compound 10 µM
# [19] = second compound 1 µM, first compound 0.0316 µM
# [20] = second compound 1 µM, first compound 0.1 µM
# [21] = second compound 1 µM, first compound 0.316 µM
# [22] = second compound 1 µM, first compound 1 µM
# [23] = second compound 1 µM, first compound 3.16 µM
# [24] = second compound 1 µM, first compound 10 µM
# [25] = second compound 3.16 µM, first compound 0.0316 µM
# [26] = second compound 3.16 µM, first compound 0.1 µM
# [27] = second compound 3.16 µM, first compound 0.316 µM
# [28] = second compound 3.16 µM, first compound 1 µM
# [29] = second compound 3.16 µM, first compound 3.16 µM
# [30] = second compound 3.16 µM, first compound 10 µM
# [31] = second compound 10 µM, first compound 0.0316 µM
# [32] = second compound 10 µM, first compound 0.1 µM
# [33] = second compound 10 µM, first compound 0.316 µM
# [34] = second compound 10 µM, first compound 1 µM
# [35] = second compound 10 µM, first compound 3.16 µM
# [36] = second compound 10 µM, first compound 10 µM
# 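Further: spheroids exposed to the agents for 7 days.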
# 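Wherever viability, T/C is given: 100% = DMSO vehicle control viability.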
smiles,measurement,setting,value
COc1ncnc(C2CC2)c1-c1ncc2cnn(Cc3ccc(-c4nc(C(F)(F)F)cn4C(C)C)cc3)c2n1 + CN(C)c1ccc(Nc2c3ccc(NC(=O)CCN4CCCC4)cc3nc3cc(NC(=O)CCN4CCCC4)ccc23)cc1,IC50,second compound 0.0316 µM,> 10 µM
same,IC50,second compound 0.1 µM,> 10 µM
same,IC50,second compound 0.316 µM,> 10 µM
same,IC50,second compound 1 µM,> 10 µM
same,IC50,second compound 3.16 µM,> 10 µM
same,IC50,second compound 10 µM,> 10 µM
same,"viability, T/C",[1],99%
same,"viability, T/C",[2],88.7%
same,"viability, T/C",[3],79.4%
same,"viability, T/C",[4],77.8%
same,"viability, T/C",[5],77.8%
same,"viability, T/C",[6],97.8%
same,"viability, T/C",[7],91.4%
same,"viability, T/C",[8],80.4%
same,"viability, T/C",[9],82.2%
same,"viability, T/C",[10],62.4%
same,"viability, T/C",[11],81.4%
same,"viability, T/C",[12],76.7%
same,"viability, T/C",[13],73%
same,"viability, T/C",[14],85.5%
same,"viability, T/C",[15],86.5%
same,"viability, T/C",[16],81.1%
same,"viability, T/C",[17],87.5%
same,"viability, T/C",[18],82.1%
same,"viability, T/C",[19],69.2%
same,"viability, T/C",[20],88.2%
same,"viability, T/C",[21],81.5%
same,"viability, T/C",[22],79%
same,"viability, T/C",[23],85.7%
same,"viability, T/C",[24],82.1%
same,"viability, T/C",[25],74.5%
same,"viability, T/C",[26],87.6%
same,"viability, T/C",[27],86.6%
same,"viability, T/C",[28],84.3%
same,"viability, T/C",[29],86.4%
same,"viability, T/C",[30],91.8%
same,"viability, T/C",[31],75.5%
same,"viability, T/C",[32],81.7%
same,"viability, T/C",[33],86.8%
same,"viability, T/C",[34],77.2%
same,"viability, T/C",[35],89%
same,"viability, T/C",[36],84.7%
CC1COCCN1c1cc(-c2ccnn2C)c2ccnc(-c3ccn[nH]3)c2n1 (stereo unspecified) + Cc1[nH]c2ccc(F)cc2c1-c1nc2c3cccnc3c3ncccc3c2[nH]1,IC50,second compound 0.0316 µM,0.209 µM
same,IC50,second compound 0.1 µM,0.287 µM
same,IC50,second compound 0.316 µM,0.288 µM
same,IC50,second compound 1 µM,0.376 µM
same,IC50,second compound 3.16 µM,0.179 µM
same,IC50,second compound 10 µM,0.113 µM
same,"viability, T/C",[1],82.8%
same,"viability, T/C",[2],66.7%
same,"viability, T/C",[3],36.5%
same,"viability, T/C",[4],28.3%
same,"viability, T/C",[5],35%
same,"viability, T/C",[6],62.5%
same,"viability, T/C",[7],86.1%
same,"viability, T/C",[8],64.5%
same,"viability, T/C",[9],57.3%
same,"viability, T/C",[10],24.7%
same,"viability, T/C",[11],37.3%
same,"viability, T/C",[12],46.5%
same,"viability, T/C",[13],76.7%
same,"viability, T/C",[14],58.5%
same,"viability, T/C",[15],57.4%
same,"viability, T/C",[16],32.5%
same,"viability, T/C",[17],36.4%
same,"viability, T/C",[18],46.4%
same,"viability, T/C",[19],60.4%
same,"viability, T/C",[20],56.1%
same,"viability, T/C",[21],51.6%
same,"viability, T/C",[22],21.6%
same,"viability, T/C",[23],42.6%
same,"viability, T/C",[24],57.9%
same,"viability, T/C",[25],54.8%
same,"viability, T/C",[26],70.2%
same,"viability, T/C",[27],29.2%
same,"viability, T/C",[28],40.8%
same,"viability, T/C",[29],33.8%
same,"viability, T/C",[30],47%
same,"viability, T/C",[31],65.8%
same,"viability, T/C",[32],55.3%
same,"viability, T/C",[33],36.4%
same,"viability, T/C",[34],42.5%
same,"viability, T/C",[35],52.3%
same,"viability, T/C",[36],47.9%
COc1cccc2c1C(=O)c1c(O)c3c(c(O)c1C2=O)CC(O)(C(=O)CO)CC3OC1CC(N)C(O)C(C)O1 (stereo unspecified) + Cc1[nH]c2ccc(F)cc2c1-c1nc2c3cccnc3c3ncccc3c2[nH]1,IC50,second compound 0.0316 µM,> 10 µM
same,IC50,second compound 0.1 µM,9.79 µM
same,IC50,second compound 0.316 µM,8.04 µM
same,IC50,second compound 1 µM,8.48 µM
same,IC50,second compound 3.16 µM,6.46 µM
same,IC50,second compound 10 µM,5.6 µM
same,"viability, T/C",[1],97.6%
same,"viability, T/C",[2],82.8%
same,"viability, T/C",[3],101%
same,"viability, T/C",[4],97.7%
same,"viability, T/C",[5],95.5%
same,"viability, T/C",[6],51.1%
same,"viability, T/C",[7],80.7%
same,"viability, T/C",[8],78%
same,"viability, T/C",[9],95.4%
same,"viability, T/C",[10],91.7%
same,"viability, T/C",[11],96.9%
same,"viability, T/C",[12],49.2%
same,"viability, T/C",[13],101%
same,"viability, T/C",[14],83.3%
same,"viability, T/C",[15],80.7%
same,"viability, T/C",[16],96.9%
same,"viability, T/C",[17],79.8%
same,"viability, T/C",[18],43.1%
same,"viability, T/C",[19],76.2%
same,"viability, T/C",[20],91.3%
same,"viability, T/C",[21],92.7%
same,"viability, T/C",[22],85.4%
same,"viability, T/C",[23],80.3%
same,"viability, T/C",[24],44.9%
same,"viability, T/C",[25],74%
same,"viability, T/C",[26],64.4%
same,"viability, T/C",[27],84.1%
same,"viability, T/C",[28],83.6%
same,"viability, T/C",[29],95.1%
same,"viability, T/C",[30],31.4%
same,"viability, T/C",[31],67.6%
same,"viability, T/C",[32],86.5%
same,"viability, T/C",[33],94.1%
same,"viability, T/C",[34],88.7%
same,"viability, T/C",[35],66.7%
same,"viability, T/C",[36],33.2%
